System: Secretion of ApoB
Experiment: Quantification of the secretion of ApoB in HepG2 cells
Format: cell-based
Settings: Homo sapiens, HepG2, 24 h, 24 hours of incubation with test compound, immunoprecipitation of apoB from medium, read-out: pIC50 value (=-log IC50 value), secretion of ApoB (converted)
Method: HepG2 cells were cultured in 24-well plates in MEM Rega 3 containing 10% fetal calf serum. At 70% confluency, the medium was changed and the test compound or carrier (DMSO, 0.4% final concentration) was added. After 24 hours of incubation, the medium was transferred to Eppendorf tubes and cleared by centrifugation. A sheep antibody directed against either apoB was added to the supernatant and the mixture was kept at 8° C. for 24 hours. Then, rabbit anti-sheep antibody was added and the immune complex was allowed to precipitate for 24 hours at 8° C. The immunoprecipitate was pelleted by centrifugation for 25 minutes at 1320 g and washed twice with a buffer containing 40 mM Mops, 40 mM NaH2PO4, 100 mM NaF, 0.2 mM DTT, 5 mM EDTA, 5 mM EGTA, 1% Triton-X-100, 0.5% sodium deoxycholate (DOC), 0.1% SDS, 0.2 μM leupeptin and 0.2 μM PMSF. Radioactivity in the pellet was quantified by liquid scintillation-counting. The IC50 values are usually converted to pIC50 values (=−log IC50 value) for ease of use.

| SMILES | IC50 [nM] |
| --- | --- |
| CCNC(=O)C(c1ccccc1)N1CCN(c2ccc(-n3cnn(C(C)C)c3=O)cn2)CC1 (stereo not shown) [Compound 46] | 316 to 3160 |
| CCCNC(=O)C(c1ccccc1)N1CCN(c2ccc(-n3cnn(C(C)C)c3=O)cn2)CC1 (stereo not shown) [Compound 47] | 316 to 3160 |
| CC(C)n1ncn(-c2ccc(N3CCN(C(C(=O)NCc4ccccc4)c4ccccc4)CC3)nc2)c1=O (stereo not shown) [Compound 48] | 31.6 to 316 |
| C=CCNC(=O)C(c1ccccc1)N1CCN(c2ccc(-n3cnn(C(C)C)c3=O)cn2)CC1 (stereo not shown) [Compound 49] | 316 to 3160 |
| CC(C)n1ncn(-c2ccc(N3CCN(C(C(=O)NCCC#N)c4ccccc4)CC3)nc2)c1=O (stereo not shown) [Compound 50] | 316 to 3160 |
| CCCCCn1ncn(-c2ccc(N3CCC(C(C(=O)Nc4ccccc4)c4ccccc4)CC3)cc2)c1=O (stereo not shown) [Compound 51] | 31.6 to 316 |
| C=CCn1ncn(-c2ccc(N3CCC(C(C(=O)Nc4ccccc4)c4ccccc4)CC3)cc2)c1=O (stereo not shown) [Compound 52] | 316 to 3160 |
| CCn1ncn(-c2ccc(N3CCC(C(C(=O)Nc4ccccc4)c4ccccc4)CC3)cc2)c1=O (stereo not shown) [Compound 53] | 316 to 3160 |
| Cc1ccc(C)c(NC(=O)C(c2ccccc2)N2CCN(c3ccc(-n4cnn(C(C)C)c4=O)cc3)CC2)c1 (stereo not shown) [Compound 54] | 31.6 to 316 |
| CC(C)n1ncn(-c2ccc(N3CCN(C(C(=O)Nc4ccc(Cl)cc4)c4ccccc4)CC3)cc2)c1=O (stereo not shown) [Compound 55] | 31.6 to 316 |
| CC(C)n1ncn(-c2ccc(N3CCN(C(C(=O)Nc4ccccc4O)c4ccccc4)CC3)cc2)c1=O (stereo not shown) [Compound 56] | 316 to 3160 |
| Cc1cccc(NC(=O)C(c2ccccc2)N2CCN(c3ccc(-n4cnn(C(C)C)c4=O)cc3)CC2)c1 (stereo not shown) [Compound 57] | 31.6 to 316 |
| CC(C)n1ncn(-c2ccc(N3CCN(C(C(=O)Nc4cccc(C(F)(F)F)c4)c4ccccc4)CC3)cc2)c1=O (stereo not shown) [Compound 58] | 31.6 to 316 |
| Cc1ccc(NC(=O)C(c2ccccc2)N2CCN(c3ccc(-n4cnn(C(C)C)c4=O)cc3)CC2)c(C)c1 (stereo not shown) [Compound 59] | 31.6 to 316 |
| Cc1cc(C)cc(NC(=O)C(c2ccccc2)N2CCN(c3ccc(-n4cnn(C(C)C)c4=O)cc3)CC2)c1 (stereo not shown) [Compound 60] | 31.6 to 316 |
| COc1cccc(NC(=O)C(c2ccccc2)N2CCN(c3ccc(-n4cnn(C(C)C)c4=O)cc3)CC2)c1 (stereo not shown) [Compound 61] | 31.6 to 316 |
| CC(C)n1ncn(-c2ccc(N3CCN(C(C(=O)Nc4ccc(F)cc4F)c4ccccc4)CC3)cc2)c1=O (stereo not shown) [Compound 62] | 31.6 to 316 |
| CC(C)n1ncn(-c2ccc(N3CCN(C(C(=O)Nc4ccc5c(c4)OCCO5)c4ccccc4)CC3)cc2)c1=O (stereo not shown) [Compound 63] | 31.6 to 316 |
| COc1cc(NC(=O)C(c2ccccc2)N2CCN(c3ccc(-n4cnn(C(C)C)c4=O)cc3)CC2)cc(C(F)(F)F)c1 (stereo not shown) [Compound 64] | 31.6 to 316 |
| CC(C)n1ncn(-c2ccc(N3CCN(C(C(=O)NCc4ccco4)c4ccccc4)CC3)cc2)c1=O (stereo not shown) [Compound 65] | 316 to 3160 |
| CCOC(=O)CNC(=O)C(c1ccccc1)N1CCN(c2ccc(-n3cnn(C(C)C)c3=O)cc2)CC1 (stereo not shown) [Compound 66] | 31.6 to 316 |
| CC(C)n1ncn(-c2ccc(N3CCN(C(C(=O)NCCNc4cccc5ccccc45)c4ccccc4)CC3)cc2)c1=O (stereo not shown) [Compound 67] | 316 to 3160 |
| CC(C)n1ncn(-c2ccc(N3CCN(C(C(=O)NCC(C)(c4ccccc4)c4ccccc4)c4ccccc4)CC3)cc2)c1=O (stereo not shown) [Compound 68] | 316 to 3160 |

| SMILES | IC50 [nM] |
| --- | --- |
| CC(C)n1ncn(-c2ccc(N3CCN(C(C(=O)NC4Cc5ccccc5C4)c4ccccc4)CC3)cc2)c1=O (stereo not shown) [Compound 69] | 31.6 to 316 |
| CC(C)n1ncn(-c2ccc(N3CCN(C(C(=O)NCc4ccccn4)c4ccccc4)CC3)cc2)c1=O (stereo not shown) [Compound 70] | 316 to 3160 |
| COc1ccc(CNC(=O)C(c2ccccc2)N2CCN(c3ccc(-n4cnn(C(C)C)c4=O)cc3)CC2)cc1 (stereo not shown) [Compound 71] | 316 to 3160 |
| CC(C)n1ncn(-c2ccc(N3CCN(C(C(=O)NCCc4ccccn4)c4ccccc4)CC3)cc2)c1=O (stereo not shown) [Compound 72] | 316 to 3160 |
| CC(C)n1ncn(-c2ccc(N3CCN(C(C(=O)NCc4ccc(S(C)(=O)=O)cc4)c4ccccc4)CC3)cc2)c1=O (stereo not shown) [Compound 73] | 316 to 3160 |
| CC(C)NC(=O)C(CN1CCN(c2ccc(-n3cnn(C(C)C)c3=O)cc2)CC1)c1ccccc1 (stereo not shown) [Compound 74] | 31.6 to 316 |
| CC(C)n1ncn(-c2ccc(N3CCN(C(C(=O)NCc4cccs4)c4ccccc4)CC3)cc2)c1=O (stereo not shown) [Compound 75] | 316 to 3160 |
| CC(C)n1ncn(-c2ccc(N3CCN(C(C(=O)NCc4cccc(C(F)(F)F)c4)c4ccccc4)CC3)cc2)c1=O (stereo not shown) [Compound 77] | 31.6 to 316 |
| COc1cc(CNC(=O)C(c2ccccc2)N2CCN(c3ccc(-n4cnn(C(C)C)c4=O)cc3)CC2)cc(OC)c1OC (stereo not shown) [Compound 78] | 316 to 3160 |
| CC(C)n1ncn(-c2ccc(N3CCN(C(C(=O)NCc4c(F)cccc4F)c4ccccc4)CC3)cc2)c1=O (stereo not shown) [Compound 79] | 316 to 3160 |
| CC(C)n1ncn(-c2ccc(N3CCN(C(C(=O)NCCNc4ccccc4)c4ccccc4)CC3)cc2)c1=O (stereo not shown) [Compound 80] | 31.6 to 316 |
| CC(C)n1ncn(-c2ccc(N3CCN(C(C(=O)NC4CC4)c4ccccc4)CC3)cc2)c1=O (stereo not shown) [Compound 81] | 316 to 3160 |
| COc1ccc(CCNC(=O)C(c2ccccc2)N2CCN(c3ccc(-n4cnn(C(C)C)c4=O)cc3)CC2)cc1OC (stereo not shown) [Compound 82] | 31.6 to 316 |
| CC(C)n1ncn(-c2ccc(N3CCN(C(C(=O)NCc4cccc5ccccc45)c4ccccc4)CC3)cc2)c1=O (stereo not shown) [Compound 83] | 31.6 to 316 |
| CC(C)n1ncn(-c2ccc(N3CCN(C(C(=O)NCCCN(C)c4ccccc4)c4ccccc4)CC3)cc2)c1=O (stereo not shown) [Compound 84] | 316 to 3160 |
| CC(C)n1ncn(-c2ccc(N3CCN(C(C(=O)NCCCc4ccccc4)c4ccccc4)CC3)cc2)c1=O (stereo not shown) [Compound 85] | 31.6 to 316 |
| Cc1nn(C(C)C)c(=O)n1-c1ccc(N2CCN(C(C(=O)NCc3ccccc3)c3ccccc3)CC2)cc1 (stereo not shown) [Compound 86] | 316 to 3160 |
| CCCn1ncn(-c2ccc(N3CCC(C(C(=O)NC(C)C)c4ccccc4)CC3)cc2)c1=O (stereo not shown) [Compound 87] | 316 to 3160 |
| CCCCn1ncn(-c2ccc(N3CCC(C(C(=O)NC(C)C)c4ccccc4)CC3)cc2)c1=O (stereo not shown) [Compound 88] | 31.6 to 316 |
| CCCCCn1ncn(-c2ccc(N3CCC(C(C(=O)NC(C)C)c4ccccc4)CC3)cc2)c1=O (stereo not shown) [Compound 89] | 316 to 3160 |
| CC(C)Cn1ncn(-c2ccc(N3CCC(C(C(=O)NC(C)C)c4ccccc4)CC3)cc2)c1=O (stereo not shown) [Compound 90] | 316 to 3160 |
| CC(C)NC(=O)C(c1ccccc1)C1CCN(c2ccc(-n3cnn(CC4CC4)c3=O)cc2)CC1 (stereo not shown) [Compound 91] | 316 to 3160 |
| CC(C)NC(=O)C(c1ccccc1)C1CCN(c2ccc(-n3cnn(C/C=C/c4ccccc4)c3=O)cc2)CC1 (stereo not shown) [Compound 92] | 316 to 3160 |

| SMILES | IC50 [nM] |
| --- | --- |
| CCC(C)n1ncn(-c2ccc(N3CCN(C(C(=O)NCCO)c4ccccc4)CC3)cc2)c1=O (stereo not shown) [Compound 94] | 316 to 3160 |
| C=CCNC(=O)C(c1ccccc1)N1CCN(c2ccc(-n3cnn(C(C)CC)c3=O)cc2)CC1 (stereo not shown) [Compound 95] | 31.6 to 316 |
| CCCCCNC(=O)C(c1ccccc1)N1CCN(c2ccc(-n3cnn(C(C)CC)c3=O)cc2)CC1 (stereo not shown) [Compound 96] | 31.6 to 316 |
| COc1ccc(CNC(=O)C(c2ccccc2)N2CCN(c3ccc(-n4cnn(C(C)C)c4=O)cc3)CC2)c(OC)c1 (stereo not shown) [Compound 97] | 31.6 to 316 |
| CC(C)n1ncn(-c2ccc(N3CCN(CC(C(=O)NCC(F)(F)F)c4ccccc4)CC3)cc2)c1=O (stereo not shown) [Compound 98] | 31.6 to 316 |
| CCCNC(=O)C(c1ccccc1)C1CCN(c2ccc(-n3cnn(C(C)C)c3=O)cc2)CC1 (stereo not shown) [Compound 99] | 31.6 to 316 |
| CNC(=O)C(CN1CCN(c2ccc(-n3cnn(C(C)C)c3=O)cc2)CC1)c1ccccc1 (stereo not shown) [Compound 100] | 31.6 to 316 |
| CCNC(=O)C(CN1CCN(c2ccc(-n3cnn(C(C)C)c3=O)cc2)CC1)c1ccccc1 (stereo not shown) [Compound 101] | 31.6 to 316 |
| CC(C)n1ncn(-c2ccc(N3CCN(CC(C(=O)NCCC#N)c4ccccc4)CC3)cc2)c1=O (stereo not shown) [Compound 102] | 316 to 3160 |
| C=CCNC(=O)C(CN1CCN(c2ccc(-n3cnn(C(C)C)c3=O)cc2)CC1)c1ccccc1 (stereo not shown) [Compound 103] | 31.6 to 316 |
| CC(C)n1ncn(-c2ccc(N3CCN(CC(C(=O)NC4CC4)c4ccccc4)CC3)cc2)c1=O (stereo not shown) [Compound 104] | 316 to 3160 |
| COCCNC(=O)C(CN1CCN(c2ccc(-n3cnn(C(C)C)c3=O)cc2)CC1)c1ccccc1 (stereo not shown) [Compound 105] | 316 to 3160 |
| CCCCNC(=O)C(CN1CCN(c2ccc(-n3cnn(C(C)C)c3=O)cc2)CC1)c1ccccc1 (stereo not shown) [Compound 106] | 31.6 to 316 |
| CC(C)CNC(=O)C(CN1CCN(c2ccc(-n3cnn(C(C)C)c3=O)cc2)CC1)c1ccccc1 (stereo not shown) [Compound 107] | 316 to 3160 |
| COC(CNC(=O)C(CN1CCN(c2ccc(-n3cnn(C(C)C)c3=O)cc2)CC1)c1ccccc1)OC (stereo not shown) [Compound 108] | 316 to 3160 |
| CCCCCNC(=O)C(CN1CCN(c2ccc(-n3cnn(C(C)C)c3=O)cc2)CC1)c1ccccc1 (stereo not shown) [Compound 109] | 31.6 to 316 |
| CCC(C)n1ncn(-c2ccc(N3CCN(C(C(=O)NCCC#N)c4ccccc4)CC3)cc2)c1=O (stereo not shown) [Compound 110] | 31.6 to 316 |
| CCCCCNC(=O)C(c1ccccc1)N1CCN(c2ccc(-n3c(C)nn(C(C)C)c3=O)cc2)CC1 (stereo not shown) [Compound 111] | 316 to 3160 |
| Cc1nn(C(C)C)c(=O)n1-c1ccc(N2CCN(C(C(=O)Nc3ccccc3)c3ccccc3)CC2)cc1 (stereo not shown) [Compound 112] | 316 to 3160 |
| CCNC(=O)C(c1ccccc1)N1CCN(c2ccc(-n3ncn(C(C)C)c3=O)cc2)CC1 (stereo not shown) [Compound 113] | 31.6 to 316 |
| CCCNC(=O)C(c1ccccc1)N1CCN(c2ccc(-n3ncn(C(C)C)c3=O)cc2)CC1 (stereo not shown) [Compound 114] | 316 to 3160 |
